This is an account of results in ChEMBL document CHEMBL1137165, “Rational design of potent and selective NH-linked aryl/heteroaryl cathepsin K inhibitors” (Bioorg Med Chem Lett, 2004).

Structures are written as SMILES.

What is called IC50 is the concentration at which inhibition is half-maximal. The low end stands for inhibition by little substance, the high end for a need for much substance.

The target in one assay is Cathepsin B (Homo sapiens, UniProt P07858). As to the kind of experiment: Inhibitory concentration against human cathepsin B.
The nature of assay [1]: Compound was evaluated for its increased potency in bone resorption assay. The assay is classed as functional.
Assay [2] addresses T1, Cathepsin K (Homo sapiens, UniProt P43235).
T1 sequence (P43235 whole entry): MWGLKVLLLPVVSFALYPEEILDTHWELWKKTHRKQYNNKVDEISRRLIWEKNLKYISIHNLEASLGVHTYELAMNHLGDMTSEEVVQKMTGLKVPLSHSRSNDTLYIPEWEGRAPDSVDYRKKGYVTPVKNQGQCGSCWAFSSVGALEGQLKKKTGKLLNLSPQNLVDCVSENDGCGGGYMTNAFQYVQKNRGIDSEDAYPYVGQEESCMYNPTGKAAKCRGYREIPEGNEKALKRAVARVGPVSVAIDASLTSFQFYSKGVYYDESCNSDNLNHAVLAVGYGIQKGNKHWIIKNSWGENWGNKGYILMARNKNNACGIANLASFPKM
As to the kind of experiment: Inhibitory concentration against human cathepsin K.

Another assay deals with Procathepsin L (Homo sapiens, UniProt P07711). As to the kind of experiment: Inhibitory concentration against human cathepsin L.
The target in assay [3] is Cathepsin K (Oryctolagus cuniculus, UniProt P43236). As to the kind of experiment: Inhibitory concentration against humanized rabbit cathepsin K.
The target in a further assay is Cathepsin S (Homo sapiens, UniProt P25774). Briefly: Inhibitory concentration against human cathepsin S.
Chain of Cathepsin S (P25774 whole entry): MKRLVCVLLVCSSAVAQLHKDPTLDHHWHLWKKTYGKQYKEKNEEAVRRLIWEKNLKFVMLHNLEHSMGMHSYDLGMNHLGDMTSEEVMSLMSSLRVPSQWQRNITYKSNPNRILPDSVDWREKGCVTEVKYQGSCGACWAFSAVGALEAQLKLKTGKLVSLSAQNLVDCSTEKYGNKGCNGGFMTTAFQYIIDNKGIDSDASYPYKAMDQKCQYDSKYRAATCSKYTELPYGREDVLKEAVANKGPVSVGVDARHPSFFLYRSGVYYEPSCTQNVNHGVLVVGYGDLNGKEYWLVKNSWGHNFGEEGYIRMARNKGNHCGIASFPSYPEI

Chain of Procathepsin L (P07711 whole entry): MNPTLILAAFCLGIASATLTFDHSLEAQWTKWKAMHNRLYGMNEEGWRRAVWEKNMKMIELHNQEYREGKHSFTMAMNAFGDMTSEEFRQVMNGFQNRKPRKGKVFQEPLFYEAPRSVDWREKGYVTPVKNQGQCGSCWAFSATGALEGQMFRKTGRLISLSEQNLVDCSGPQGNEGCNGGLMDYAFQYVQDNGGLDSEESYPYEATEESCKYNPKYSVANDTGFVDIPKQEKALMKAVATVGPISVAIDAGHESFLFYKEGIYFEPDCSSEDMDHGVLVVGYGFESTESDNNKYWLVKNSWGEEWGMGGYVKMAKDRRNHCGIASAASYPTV

Take `CC(C)C[C@H](Nc1cscc1-c1ccc(N2CCNCC2)cc1)C(=O)NCC#N`: the IC50 on Cathepsin B came to 123 nM; on Cathepsin K [2] it was 0.2 nM; on Procathepsin L, 352 nM; on Cathepsin K [3], 1 nM; on Cathepsin S, 102 nM. Besides, the Activity in assay [1] turned out to be 10 nM.

Regarding `CC(C)CC(Sc1ccc(Br)cc1)C(=O)NCC#N` (stereo not given), the half-inhibitory concentration (IC50) on Cathepsin K [3] came out at 675 nM.

At Cathepsin K [3], `CC(C)CC(Sc1ccccc1Br)C(=O)NCC#N` (stereo not given) displayed an IC50 of 433 nM.

Regarding `CC(C)CC(Cc1cccc(Br)c1)C(=O)NCC#N` (stereo not given), at Cathepsin K [3], the IC50 turned out to be 3390 nM.

Consider `CC(C)C[C@H](Nc1cccc(-c2ccc(N3CCNCC3)cc2)c1)C(=O)NCC#N`, for which the IC50 came to 93 nM at Cathepsin B, 108 nM at Procathepsin L, 2 nM at Cathepsin K [3] and 24 nM at Cathepsin S. In assay [1], this compound yielded an Activity of 61 nM.

On to `CC(C)CC(Sc1cccc(Br)c1)C(=O)NCC#N` (stereo not given), for which the IC50 on Cathepsin K [3] turned out to be 684 nM.

`CC(C)CC(Oc1cccc(Br)c1)C(=O)NCC#N` (stereo not given) displayed an IC50 against Cathepsin K [3] of 1470 nM.

For the compound `CC(C)C[C@H](Nc1cscc1Br)C(=O)NCC#N`, the IC50 was 158 nM at Cathepsin B, 458 nM on Procathepsin L, 43 nM against Cathepsin K [3] and 897 nM against Cathepsin S. This compound also displayed an Activity in assay [1] of 71 nM.

`CC(C)CC(Nc1cccc(Br)c1)C(=O)NCC#N` (stereo not given): inhibition against Cathepsin K [3] was half-maximal at 72 nM (IC50).

The compound `CC(C)CC(Cc1ccccc1Br)C(=O)NCC#N` (stereo not given) showed a concentration for half-maximal inhibition (IC50) at Cathepsin K [3] of 2350 nM.

At Cathepsin K [3], `CC(C)CC(Oc1ccc(Br)cc1)C(=O)NCC#N` (stereo not given) displayed an IC50 of 3000 nM.

As for `CC(C)C[C@@H](C(=O)NCC#N)c1cccc(-c2ccc(N3CCNCC3)cc2)c1`, the Activity in assay [1] is 95 nM. For the same compound, half-maximal inhibition on Cathepsin K [3] (IC50) required 11 nM.

Consider `CC(C)C[C@H](Nc1ccc(-c2ccc(N3CCNCC3)cc2)cc1)C(=O)NCC#N`, for which the half-inhibitory concentration (IC50) against Cathepsin B came to 26 nM; on Procathepsin L it was 115 nM; at Cathepsin K [3], 27 nM; against Cathepsin S it was 34 nM. Moreover, in assay [1], the Activity stood at 37 nM.

Turning to `CC(C)CC(Cc1ccc(Br)cc1)C(=O)NCC#N` (stereo not given), at Cathepsin K [3], the concentration for half-maximal inhibition (IC50) came out at 2390 nM.

With `CC(C)C[C@H](Nc1ccccc1-c1ccc(N2CCNCC2)cc1)C(=O)NCC#N`, the IC50 on Cathepsin B was 1810 nM; against Procathepsin L, 2100 nM; on Cathepsin K [3], 3 nM; against Cathepsin S, 158 nM. In assay [1], the Activity is 9 nM.

`CC(C)CC(Oc1ccccc1Br)C(=O)NCC#N` (stereo not given) came in with an IC50 at Cathepsin K [3] of 1150 nM.

In turn, `CC(C)CC(Nc1ccccc1Br)C(=O)NCC#N` (stereo not given) had an IC50 at Cathepsin K [3] of 54 nM.

`CC(C)CC(Nc1ccc(Br)cc1)C(=O)NCC#N` (stereo not given) registered an IC50 against Cathepsin K [3] of 208 nM.
